From patent publication US20060247223A1, “Non-imidazole alkylamines as histamine H3- receptor ligands and their therapeutic applications” (priority 1998, published 2006)
Counter-ions that a name gives are not always drawn. Like-named read-outs stand apart in the source and are kept apart here.

Experiments:
H3 receptor [1] = target: T1, H3 receptor (Mus musculus, UniProt P58406); test: tele-methylhistamine level variations in the brain of mice after p.o. administration; assay type: in vivo; conditions: for ED50 (mg/kg/p.o.): tele-methylhistamine level in brain, dose for half maximal effect; for ED50: mouse, po, brain tele-methylhistamine level, dose responsible for an half maximal effect
T1 construct: estimated in vivo by the measurement of the tele-methylhistamine level variations in the brain of mice; from tissue; host or cells: mouse brain, in vivo after p.o. administration
T1 sequence (P58406 whole entry): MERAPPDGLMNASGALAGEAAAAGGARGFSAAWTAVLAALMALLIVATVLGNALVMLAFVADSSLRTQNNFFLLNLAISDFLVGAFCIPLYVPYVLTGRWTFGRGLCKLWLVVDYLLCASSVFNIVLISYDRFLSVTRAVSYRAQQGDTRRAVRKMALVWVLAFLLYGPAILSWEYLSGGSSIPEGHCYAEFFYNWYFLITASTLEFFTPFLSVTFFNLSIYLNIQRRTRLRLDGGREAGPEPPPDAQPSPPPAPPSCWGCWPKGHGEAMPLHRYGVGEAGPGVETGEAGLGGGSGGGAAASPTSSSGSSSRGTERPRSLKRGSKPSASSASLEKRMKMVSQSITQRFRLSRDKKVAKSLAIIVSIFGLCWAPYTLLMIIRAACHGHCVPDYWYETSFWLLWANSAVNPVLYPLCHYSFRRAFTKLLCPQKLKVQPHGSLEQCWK
Description: At various time after p.o. administration of the. compounds, the effect of agonists and antagonists are evidenced by the decrease and increase respectively in telemethylhistamine level induced.
The changes are compared to those induced by reference compounds given in high dosage and this allows the calculation of the ED50 value for each compound which correspond to the dose responsible for an half maximal effect.

H3 receptor [2] = target: T2, H3 receptor (Rattus norvegicus, UniProt Q9QYN8); test: release of neosynthesized tritiated histamine from rat cerebral cortex synaptosomes; assay type: biochemical
T2 construct: release of neosynthesized tritiated histamine from rat cerebral cortex synaptosomes; from tissue; host or cells: rat cerebral cortex synaptosomes
T2 sequence (Q9QYN8 whole entry): as the sequence (P58406 whole entry) above, with A15T, T286A, G290A, H387R, V389I counted along it

H3 receptor [3] = target: T3, H3 receptor (Cavia porcellus, UniProt Q9JI35); test: guinea-pig ileum longitudinal muscle strips, electrically stimulated contraction, (R)α-methylhistamine curves with antagonist; assay type: biochemical; conditions: against (R)α-methylhistamine, 1 μM mepyramine present, read-out: H3-receptor antagonist activity pA2 (guinea-pig ileum) (converted)
T3 construct: longitudinal muscle strips from guinea-pig small intestine were dissected out; from tissue; host or cells: guinea-pig small intestine longitudinal muscle strips
T3 sequence (Q9JI35 whole entry): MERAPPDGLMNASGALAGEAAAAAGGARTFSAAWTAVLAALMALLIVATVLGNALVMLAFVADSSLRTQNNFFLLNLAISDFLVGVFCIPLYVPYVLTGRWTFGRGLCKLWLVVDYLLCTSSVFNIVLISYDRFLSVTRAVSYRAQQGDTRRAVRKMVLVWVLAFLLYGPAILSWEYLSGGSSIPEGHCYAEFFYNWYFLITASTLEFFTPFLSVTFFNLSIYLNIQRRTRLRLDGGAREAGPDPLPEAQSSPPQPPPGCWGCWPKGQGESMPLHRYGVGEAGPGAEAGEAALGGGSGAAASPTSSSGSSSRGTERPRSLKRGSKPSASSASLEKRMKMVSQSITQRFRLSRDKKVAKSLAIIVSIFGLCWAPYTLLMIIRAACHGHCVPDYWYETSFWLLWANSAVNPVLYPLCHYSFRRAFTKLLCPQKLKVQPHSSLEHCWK
Experimental: Briefly, longitudinal muscle strips from guinea-pig small intestine were dissected out and incubated in a gassed O2/CO2 (95%/5%) modified Krebs-Ringer's bicarbonate medium at +37° C. in presence of 1 μM mepyramine to block the H1 receptor. After equilibration, contractile activity under stimulation (rectangular pulses of 15 V, 0.5 msec, 0.1 Hz) was recorded. Concentration-response curves of the effect of (R)α-Methylhistamine alone or together with the antagonist were established.

[4] = H3 receptor, rat cerebral cortex synaptosomes, reversal of (R)α-methylhistamine inhibition of tritiated histamine release, read-out: Ki

Row | ED50 (mg/kg/p.o.) (H3 receptor [1]) | Ki (H3 receptor [2]; [4]) | Structure (SMILES) | other results
1 | 1.0 mg/kg/p.o. | 28 ± 7 nM | CC(O)c1ccc(OCCCCCN2CCCC2)cc1 (stereo not drawn) [Example 50, 1-{5-[4-(1-hydroxyethyl)-phenoxy]-pentyl}-pyrrolidine] | –
2 | 0.5 mg/kg/p.o. | 4.6 ± 2 nM | CC(=O)c1ccc(OCCCN2CCC(C)CC2)cc1 [Example 68, 1-[3-(4-acetylphenoxy)-propyl]-4-methyl-piperidine] | –
3 | 1.1 mg/kg/p.o. | 39 ± 11 nM | O=[N+]([O-])c1ccc(OCCCCCN2CCCC2)cc1 [Example 18, 1-[5-(4-nitrophenoxy)-pentyl]-pyrrolidine] | –

Second part, the compound before the results:

Row | Structure (SMILES) | ED50 (mg/kg/p.o.) (H3 receptor [1]) | Ki (H3 receptor [2]; [4]) | other results
4 | N#Cc1ccc(OCCCN2CCCCCC2)cc1 [Example 60, N-[3-(4-cyanophenoxy)-propyl]-hexamethyleneimine] | 0.64 mg/kg/p.o. | 8.7 ± 2.1 nM | –
5 | c1ccc(CCCCCCN2CCCCC2)cc1 [Example 136, N-(6-Phenylhexyl)piperidine] | – | – | Kb (H3 receptor [3]): 316 nM
6 | CCCCCNC(=O)OCCCN1CCCCC1 [Example 120, N-Pentyl-3-piperidinopropyl carbamate] | – | – | Kb (H3 receptor [3]): 501 nM
7 | O=C(c1ccc(OCCCN2CCCCC2)cc1)C1CC1 [Example 76, 1-[3-(4-cyclopropanecarbonylphenoxy)propyl]piperidine] | – | – | ED50 (H3 receptor [1]): 0.18 mg/kg
8 | CCN(CC)CCCOc1ccc(C(C)O)cc1 (stereo not drawn) [Example 63, N-3-[4-(1-hydroxyethyl)-phenoxy]-propyl-diethylamine] | 0.45 mg/kg/p.o. | 60 ± 18 nM | –
9 | CCN(CC)CCCOc1ccc(C#N)cc1 [Example 43, N-[3-(4-cyanophenoxy)-propyl]-diethylamine] | 0.50 mg/kg/p.o. | 95 ± 28 nM | –
10 | CCC(=O)c1ccc(OCCCN2CCCC(C)C2)cc1 (stereo not drawn) [Example 88, 1-[3-(4-propionylphenoxy)propyl]-3-methylpiperidine] | – | – | ED50 (H3 receptor [1]): 0.14 mg/kg
11 | CCC(=O)c1ccc(OCCCN2CCCCC2)cc1 [Example 69, 1-[3-(4-propionylphenoxy)-propyl]-piperidine] | 0.6 mg/kg/p.o. | 4.7 ± 0.8 nM | –
12 | CCCCCCC(=O)N1CCC(N2CCCCC2)CC1 [Example 124, N-Heptanoyl-1,4′-bipiperidine] | – | – | Kb (H3 receptor [3]): 398 nM
13 | CCN(CC)CCCOc1ccc(C(C)=O)cc1 [Example 46, N-[3-(4-acetylphenoxy)-propyl]-diethylamine] | 0.44 mg/kg/p.o. | 20 ± 7 nM | –
14 | CC(=O)c1ccc(OCCCN2CCCC(C)C2)cc1 (stereo not drawn) [Example 66, 1-[3-(4-acetylphenoxy)-propyl]-3-methyl-piperidine] | 0.3 mg/kg/p.o. | 3.7 ± 0.5 nM | –
15 | C[C@H]1C[C@H](C)CN(CCCOc2ccc(C(=O)C3CC3)cc2)C1 (relative stereo) [Example 101, 1-[3-(4-cyclopropanecarbonylphenoxy)propyl]-trans-3,5 dimethylpiperidine] | – | – | ED50 (H3 receptor [1]): 0.17 mg/kg
16 | CCN(CC)CCCOc1ccc(/C(C)=N/O)cc1 [Example 64, 4-(3-diethylaminopropoxy)-acetophenone-oxime] | 0.8 mg/kg/p.o. | 2.7 ± 0.9 nM | –
17 | CCN(CC)CCCCOc1ccc(C#N)cc1 [Example 56, N-[4-(4-cyanophenoxy)-butyl]-diethylamine] | 1.1 mg/kg/p.o. | 62 ± 15 nM | –
18 | N#Cc1ccc(OCCCN2CCCCC2)cc1 [Example 59, 1-[3-(4-cyanophenoxy)propyl]piperidine] | 0.20 mg/kg/p.o. | – | ED50 (H3 receptor [1]): 0.02 mg/kg; Ki (H3 receptor [2]): 11 ± 2 nM
19 | CCCC(=O)c1ccc(OCCCN2CCCCC2)cc1 [Example 74, 1-[3-(4-buyrylphenoxy)propyl]piperidine] | – | – | ED50 (H3 receptor [1]): 0.21 mg/kg
20 | CC(=O)c1ccc(OCCCN2CCCCC2)cc1 (as salt: oxalate) [Example 65, 1-[3-(4-acetylphenoxy)-propyl]-piperidine] | – | – | melting point: 159 to 160 °C
21 | O=[N+]([O-])c1ccc(OCCCN2CCCCC2)cc1 (as salt: oxalate) [Example 109, 1-[3-(4-nitrophenoxy)propyl]piperidine] | – | – | melting point: 148 to 151 °C
22 | CC(=O)N1CCN(CCCCCOc2ccccc2)CC1 (as salt: oxalate) [Example 11, 1-acetyl-4-(5-phenoxypentyl)-piperazine] | – | – | melting point: 186 to 188 °C
23 | c1ccc(Oc2ccc(OCCCCCN3CCCC3)cc2)cc1 (as salt: oxalate) [Example 48, 1-[5-(4-phenoxyphenoxy)-pentyl]-pyrrolidine] | – | – | melting point: 135 to 136 °C
24 | c1ccc2sc(NCCN3CCCCC3)nc2c1 [Example 131, 2-((2-Piperidinoethyl)amino)benzothiazole] | – | – | Kb (H3 receptor [3]): 251 nM
25 | CN(C)S(=O)(=O)c1ccc(OCCCN2CCCCC2)cc1 (as salt: oxalate) [Example 110, 1-[3-(4-N,N-dimethylsulfonamidophenoxy)propyl]piperidine] | – | – | melting point: 149 to 153 °C
26 | c1ccc(OCCCCCCN2CCCC2)cc1 (as salt: oxalate) [Example 32, 1-(6-phenoxyhexyl)-pyrrolidine] | – | – | melting point: 146 to 147 °C
